Data taken from ChEMBL document CHEMBL1201862, “PubChem BioAssay data set” (2004).
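Results reflect a 48-hour exposure of cells in 96-well plates to compound at five concentrations. At the GI50, growth is halved.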 The source made the active and inactive calls. Cut-off read from the data, not from the text of the source: active = GI50 up to about 1.1 µM and inactive = higher.

Tests used:
Assay in all cases: DTP human tumour cell line panel, 48 h
COLO 205 = test system: COLO 205
U-251 = test system: U-251
CCRF-CEM = test system: CCRF-CEM
KM12 = test system: KM12
SNB-19 = test system: SNB-19
SK-MEL-28 = test system: SK-MEL-28
A549 = test system: A549
LOX IMVI = test system: LOX IMVI
HOP-92 = test system: HOP-92
MCF7 = test system: MCF7
NCI-H522 = test system: NCI-H522
786-0 = test system: 786-0
M14 = test system: M14
CAKI-1 = test system: CAKI-1
NCI/ADR-RES = test system: NCI/ADR-RES
NCI-H226 = test system: NCI-H226
BT-549 = test system: BT-549
OVCAR-3 = test system: OVCAR-3
SNB-75 = test system: SNB-75
OVCAR-8 = test system: OVCAR-8

Row | Structure (SMILES) | GI50 (COLO 205) | GI50 (U-251) | GI50 (CCRF-CEM) | GI50 (KM12) | GI50 (SNB-19) | GI50 (SK-MEL-28) | GI50 (A549) | GI50 (LOX IMVI) | GI50 (HOP-92) | GI50 (MCF7) | GI50 (NCI-H522) | GI50 (786-0) | GI50 (M14) | GI50 (CAKI-1) | GI50 (NCI/ADR-RES) | GI50 (NCI-H226) | GI50 (BT-549) | GI50 (OVCAR-3) | GI50 (SNB-75) | GI50 (OVCAR-8)
1 | CC1OC(OC2C(O)COC(OC3C(C)OC(OC4C(OC(=O)[C@]56CCC(C)(C)C[C@@H]5C5=CCC7[C@@]8(C)C[C@H](O)[C@H](OC9OC(CO)C(O)C(O)C9O)[C@@](C)(CO)[C@@H]8CC[C@@]7(C)[C@]5(C)CC6)OCC(O)C4O)C(O)C3OC3OCC(O)(CO)C3O)C2O)C(O)C(O)C1O (some centres not stated) | 2.51 µM (inactive) | 16.3 µM (inactive) | 18.5 µM (inactive) | 18.8 µM (inactive) | 14.7 µM (inactive) | 3.29 µM (inactive) | 4.62 µM (inactive) | 19.8 µM (inactive) | 26.6 µM (inactive) | 25.5 µM (inactive) | 16.1 µM (inactive) | 12.4 µM (inactive) | 3.33 µM (inactive) | 2.58 µM (inactive) | 18.8 µM (inactive) | 16.9 µM (inactive) | 16.6 µM (inactive) | 18.9 µM (inactive) | 21 µM (inactive) | 18.5 µM (inactive)
2 | COc1ccc2nc3c(c(N)c2c1)C1CCC3C1(C)C (configuration not stated) | 17.1 µM (inactive) | 38.5 µM (inactive) | 14.1 µM (inactive) | 42.9 µM (inactive) | > 100 µM (inactive) | 30.8 µM (inactive) | 70.5 µM (inactive) | 35.9 µM (inactive) | 16.4 µM (inactive) | 24 µM (inactive) | 34.7 µM (inactive) | 22.5 µM (inactive) | 17.8 µM (inactive) | 39.3 µM (inactive) | > 100 µM (inactive) | 25.3 µM (inactive) | > 100 µM (inactive) | 31.9 µM (inactive) | 29.6 µM (inactive) | 71.1 µM (inactive)
3 | C[C@@H]1S[C@H](c2ccccc2F)N2Cc3ccccc3N=C12 | 30.8 µM (inactive) | 27.9 µM (inactive) | 30.6 µM (inactive) | 27.3 µM (inactive) | 30.6 µM (inactive) | 40.7 µM (inactive) | 39.2 µM (inactive) | 18.5 µM (inactive) | 17.3 µM (inactive) | 31.6 µM (inactive) | 19.2 µM (inactive) | 23.4 µM (inactive) | 20.9 µM (inactive) | 20.9 µM (inactive) | 24.7 µM (inactive) | 30.1 µM (inactive) | 31.3 µM (inactive) | 34.4 µM (inactive) | 25.6 µM (inactive) | 28.4 µM (inactive)
4 | COC1CC(OC2C(C)OC(OC3C(C)OC(OC4C(O)CC(O[C@H]5CC[C@@]6(C)C(=CC[C@]7(O)[C@@H]6C[C@@H](OC(C)=O)[C@@]6(C)[C@]7(O)CC[C@@]6(O)C(C)=O)C5)OC4C)CC3OC)CC2OC)OC(C)C1O (some centres not stated) | > 12.5 µM (inactive) | > 12.5 µM (inactive) | > 12.5 µM (inactive) | > 12.5 µM (inactive) | > 12.5 µM (inactive) | – | > 12.5 µM (inactive) | > 12.5 µM (inactive) | > 12.5 µM (inactive) | > 12.5 µM (inactive) | > 12.5 µM (inactive) | > 12.5 µM (inactive) | > 12.5 µM (inactive) | > 12.5 µM (inactive) | > 12.5 µM (inactive) | > 12.5 µM (inactive) | > 12.5 µM (inactive) | > 12.5 µM (inactive) | > 12.5 µM (inactive) | > 12.5 µM (inactive)
5 | CC1=NCCN=C(C)C1/N=N/c1ccc2[nH]c(C)nc2c1 | 15.2 µM (inactive) | 17.5 µM (inactive) | 4.97 µM (inactive) | 11.7 µM (inactive) | 10 µM (inactive) | 10.6 µM (inactive) | 6.19 µM (inactive) | 20.7 µM (inactive) | 4.7 µM (inactive) | 5.75 µM (inactive) | 17.4 µM (inactive) | 11.7 µM (inactive) | 3.57 µM (inactive) | 18.5 µM (inactive) | 12 µM (inactive) | 20.3 µM (inactive) | 9.08 µM (inactive) | 19.5 µM (inactive) | 13.2 µM (inactive) | 12.2 µM (inactive)
6 | O=C1C(Br)=CC2(C=C1Br)CCNC1=C2C2=NCCc3c[nH]c(c32)C1=O | 0.0149 µM (active) | 0.398 µM (active) | 0.0198 µM (active) | 0.516 µM (active) | 1.41 µM (inactive) | 0.163 µM (active) | 0.951 µM (active) | 0.0615 µM (active) | 0.0817 µM (active) | 0.0266 µM (active) | 0.0176 µM (active) | 0.124 µM (active) | 0.0703 µM (active) | 0.134 µM (active) | 0.164 µM (active) | 1.27 µM (inactive) | 0.212 µM (active) | 0.0249 µM (active) | 0.973 µM (active) | 0.0736 µM (active)
7 | O=C(c1ccc(F)cc1)c1cccc(C(=O)c2ccc(F)cc2)n1 | > 100 µM (inactive) | 19.1 µM (inactive) | > 100 µM (inactive) | > 100 µM (inactive) | 25.2 µM (inactive) | > 100 µM (inactive) | 69.2 µM (inactive) | 60.7 µM (inactive) | 15.8 µM (inactive) | > 100 µM (inactive) | 20.3 µM (inactive) | 37.8 µM (inactive) | 62.2 µM (inactive) | 28 µM (inactive) | 90.8 µM (inactive) | > 45.4 µM (inactive) | 12.2 µM (inactive) | > 100 µM (inactive) | 12.6 µM (inactive) | 81.5 µM (inactive)
8 | CNc1ncnc(Sc2nc(N)nc3[nH]cnc23)c1[N+](=O)[O-] | 2.13 µM (inactive) | 4.42 µM (inactive) | 0.084 µM (active) | 2.64 µM (inactive) | 35.6 µM (inactive) | 8.2 µM (inactive) | 3.08 µM (inactive) | 0.189 µM (active) | 0.52 µM (active) | 0.735 µM (active) | 0.635 µM (active) | 0.583 µM (active) | 0.448 µM (active) | 0.582 µM (active) | 0.427 µM (active) | 5.7 µM (inactive) | 2.6 µM (inactive) | 0.75 µM (active) | 0.406 µM (active) | 0.622 µM (active)
9 | CCC(=O)Nc1ccc(NCC(=O)Nc2ccc(OC)cc2)cc1 | 31.8 µM (inactive) | – | 25.4 µM (inactive) | 17.4 µM (inactive) | 13.2 µM (inactive) | 49.1 µM (inactive) | 54 µM (inactive) | 16.6 µM (inactive) | 23.8 µM (inactive) | 17.1 µM (inactive) | 15.2 µM (inactive) | 20.3 µM (inactive) | 49.3 µM (inactive) | 13.5 µM (inactive) | 28.1 µM (inactive) | 12.4 µM (inactive) | 23.2 µM (inactive) | 25.2 µM (inactive) | 13.7 µM (inactive) | 19.7 µM (inactive)
10 | CC1=COC2=C(C)C(=O)C(=O)c3c(C)ccc1c32 [MANSONONE F] | 2.55 µM (inactive) | 4.38 µM (inactive) | 2.98 µM (inactive) | 3.93 µM (inactive) | 4.07 µM (inactive) | 14.2 µM (inactive) | 2.92 µM (inactive) | 3.66 µM (inactive) | 15.6 µM (inactive) | 2.69 µM (inactive) | 2.17 µM (inactive) | 4.1 µM (inactive) | 2.86 µM (inactive) | 20.3 µM (inactive) | 2.1 µM (inactive) | 14.4 µM (inactive) | 14.2 µM (inactive) | 0.349 µM (active) | 9.06 µM (inactive) | 2.7 µM (inactive)
11 | C/C1=C\CC[C@@]2(C)O[C@@H]2C[C@@H]2[C@H](C/C(C)=C/CC1)OC(=O)C21CCN=N1 (some centres not stated) | > 75 µM (inactive) | > 75 µM (inactive) | 15 µM (inactive) | > 75 µM (inactive) | > 75 µM (inactive) | > 75 µM (inactive) | 51.2 µM (inactive) | 21 µM (inactive) | > 75 µM (inactive) | > 75 µM (inactive) | 72.4 µM (inactive) | > 75 µM (inactive) | > 75 µM (inactive) | > 75 µM (inactive) | > 75 µM (inactive) | > 100 µM (inactive) | > 75 µM (inactive) | > 75 µM (inactive) | 25.9 µM (inactive) | > 75 µM (inactive)
12 | C=C1C(=O)O[C@H]2C/C(C)=C/CC[C@@]3(C)O[C@](C)(CC[C@@H]3I)[C@@H](I)C[C@@H]12 | 3.39 µM (inactive) | 4.49 µM (inactive) | 0.592 µM (active) | 3.61 µM (inactive) | 6.95 µM (inactive) | 7.01 µM (inactive) | 6.78 µM (inactive) | 1.56 µM (inactive) | 5.83 µM (inactive) | 2.25 µM (inactive) | 3.05 µM (inactive) | 4.68 µM (inactive) | 10.9 µM (inactive) | 7.19 µM (inactive) | 1.44 µM (inactive) | 0.869 µM (active) | 4.75 µM (inactive) | 3.21 µM (inactive) | 6.03 µM (inactive) | 1.88 µM (inactive)
13 | CC(C)CC(NC(=O)C(COc1ccc([N+](=O)[O-])cc1)Cc1ccccc1)C(=O)Nc1ccccc1 (configuration not stated) | 9.04 µM (inactive) | 12.6 µM (inactive) | 7.26 µM (inactive) | 5.85 µM (inactive) | 7.76 µM (inactive) | – | 16.1 µM (inactive) | 48.6 µM (inactive) | 13.3 µM (inactive) | 25.8 µM (inactive) | 12.5 µM (inactive) | 7.08 µM (inactive) | 9.53 µM (inactive) | 28.2 µM (inactive) | 12.7 µM (inactive) | 3.44 µM (inactive) | 10.9 µM (inactive) | 41.1 µM (inactive) | 2.38 µM (inactive) | 6.98 µM (inactive)
